From patent US5593960A, “Cyclic heptapeptide anti-inflammatory agent” (The Regents of the University of California, priority 1995, dated 1997)

System: phorbol-induced inflammation (edema) of mouse ears
Test: Inhibition of Mouse Ear Edema - Standard Protocol (topical, PMA-induced)
Type: in vivo
Settings: for Inhibition of mouse ear edema: relative to PMA control
Protocol: Cyclomarin-A was tested by measuring inhibition of phorbol-induced inflammation (edema) of mouse ears. […] The compound is topically applied in acetone to the inside pinnae of the ears of mice in a solution containing the edema-causing irritant, i.e. phorbol 12-myristate 13-acetate (PMA). PMA alone (2 microgram per ear) or in combination with varying amounts of cyclomarin-A was applied to the left ears of (5 mice per treatment group). Acetone was applied to all right ears. After a 3-hour and 20-minute incubation at 23° C., the mice were sacrificed, the ears removed and bores taken and weighed. Edema was measured by subtracting the weight of the right ear (acetone control) from the weight of the left ear (treated). The results were recorded as a percent decrease (inhibition) or percent increase (potentiation) in edema relative to the PMA control group edema.

## cyclomarin-A
5 ug/ear with PMA 2 microgram per ear
  Inhibition of mouse ear edema: 3.0%
10 ug/ear with PMA 2 microgram per ear
  Inhibition of mouse ear edema: 39.0%
25 ug/ear with PMA 2 microgram per ear
  Inhibition of mouse ear edema: 57.0%
50 ug/ear with PMA 2 microgram per ear
  Inhibition of mouse ear edema: 88.0%
General statement
  topical anti-inflammatory activity: exhibit topical anti-inflammatory activity
